Assay results: patent publication EP1048669A1, “CARBAPENEM DERIVATIVES” (priority 1997, dated 1999)
Where a name gives a salt, the structure may show the parent alone. Read-outs that look alike come from different tables or passages of the source.

Experiments:
MRSA BB6294 = test: In vitro antibacterial activity, agar plate dilution method (MIC), MRSA conditions; format: cell-based, methicillin-resistant Staphylococcus aureus; conditions: Staphylococcus aureus, read-out: Minimum growth inhibitory concentrations (MIC)
Experimental: (§1) A Mueller Hinton agar (MH agar) was inoculated with a platinum loop quantity (the quantity of inoculated bacterium: 10^6 CFU/ml) of each test bacterial strain which had been cultured overnight in Mueller Hinton broth. The culture medium contained an antibacterial agent at a varied concentration. After a culture at 37°C for 16 hours, the minimum growth inhibitory concentration (MIC: µg/ml) of the compound of this invention was measured. When MRSA was used as the test strain, a medium containing 2% sodium chloride was used as the test medium in accordance with the above-mentioned agar plate dilution method, and the minimum growth inhibitory concentration (MIC: µg/ml) of the compound of this invention was measured under culture conditions of 35°C, 48 hours.

P. aeruginosa IFO-3445 = test: In vitro antibacterial activity, agar plate dilution method (MIC); format: cell-based; conditions: Pseudomonas aeruginosa, read-out: Minimum growth inhibitory concentrations (MIC)
Experimental: as §1

E. coli NIHJ JC2 = test: as above; format: cell-based; conditions: Escherichia coli, read-out: Minimum growth inhibitory concentrations (MIC)
Experimental: as §1

male SD rats = test: Toxicity test on the central nervous system (administration to the right ventricle of the brain); format: in vivo; conditions: observed thirty minutes
Description: A chronic guide cannula was inserted into the right ventricle of the brain of 7-weeks old male SD rats (n = 5) and immobilized with a dental resin. […] After the administration, behavior of the animal was visually examined in an observing cage for thirty minutes.

Pseudomonas aeruginosa = conditions: especially against Pseudomonas aeruginosa; cited from earlier work
[1] = In vivo stability test (TLC bioautography of urine); set-up: species or system rhesus monkey
Experimental: The compound of Example 1 was used as a representative compound, and the compound of Example 139B of Document A was used as a comparative compound. A test agent (10 mg/kg) was intravenously administered to 4-years old male rhesus monkey (body weight 5.48 kg) over a period of 5 minutes. The urine was collected over a period of 0-1 hour and over a period of 1-2 hours, both after the administration. The urine samples were stored at an ice-cooled temperature. A TLC plate (silica gel 60F-254, manufactured by Merck Co.) which had been activated just before use at 120°C for 30 minutes and spotted with 4 µl of each urine sample, was developed with a solvent in a closed vessel (developing solvent: CH3CN/H2O/CH3COOH/25% NH4OH = 45:30:6:2; pH 5.3). After completion of the development, the TLC plate was taken out of the vessel, and dried. An AM-1 medium (manufactured by Difco Co.) containing a test strain (B. subtilis ATCC 12432) was contacted with the silica gel surface of the TLC plate at ambient temperature for 30 minutes. After stripping off the TLC plate, the medium was cultured at 37°C overnight. Rf value of a clear zone formed by the growth inhibition of test strain was determined. As control, the test compound was dissolved in 10 mmol MOPS buffer (pH 7) at the concentration of 250 µg/ml, and 2 µl of this solution was spotted on a TLC plate.

male ICR mice = test: Acute toxicity test (single intravenous administration); format: in vivo; conditions: observed over five days
Experimental: The compound of Example 24 was used as a representative compound. According to "Explanation Book for GLP Standard and Toxicity Test Guideline" (supervised by Department of Examination, Bureau of Pharmacy, Ministry of Health and Welfare; published by Yakuji Shimpou-sha), a test compound was diluted with distilled water for injection use until the agent concentration reached 60.75 mg/ml and once administered intravenously to the tail vein of 6-weeks old male ICR mice at an administration rate of 1 ml/min. After the administration, the state of death and the general motility were observed over five days.

[2] = target: T1, Metallo-β-lactamase encoded by plasmid pMS350 (Serratia marcescens, UniProt P52699); test: β-Lactamase inhibition test (Nitrocefin substrate); format: biochemical, Pseudomonas aeruginosa GN17203; conditions: Nitrocefin 37.5 µg/ml, 30°C for 15 minutes, Zn2+ 100 µM, MOPS buffer
T1 construct: made in house
T1 sequence (P52699 19-246): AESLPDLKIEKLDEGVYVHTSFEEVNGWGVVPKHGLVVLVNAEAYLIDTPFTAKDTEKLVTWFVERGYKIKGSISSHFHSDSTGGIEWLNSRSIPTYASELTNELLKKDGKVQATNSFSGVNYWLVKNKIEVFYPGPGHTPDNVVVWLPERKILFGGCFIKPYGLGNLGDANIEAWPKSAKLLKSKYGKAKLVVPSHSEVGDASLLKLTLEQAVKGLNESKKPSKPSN
Experimental: Metallo-β-lactamase encoded by plasmid pMS350 originated from Pseudomonas aeruginosa GN17203 was purified and used for this test. The enzyme previously gave a single protein band on SDS/PAGE (specific activity: 70 U/mg protein). The enzymatic activity (U) was measured by reacting it with 100 µM of imipenem dissolved in 10 mM 3-morpholinopropanesulfonate buffer (pH 7.0) (hereinafter referred to as MOPS buffer) containing 100 µM zinc chloride, and the quantity of enzyme capable of hydrolyzing 1 µM of imipenem per one minute at a reaction temperature of 30°C was defined as 1 U.
As the screening substrate of this test, Nitrocefin®, OXOID) was used. In each well of a 96 well plate, 1 µl of a test agent dissolved in 10 mM MOPS buffer and 25 µl of metallo-β-lactamase preparation (enzymatic activity: 3-6 mU/ml) were mixed, and then 75 µl of 50 µg/ml Nitrocefin® was added and mixed to create a final substrate concentration of 37.5 µg/ml. The enzymic reaction was carried out at 30°C for 15 minutes and followed by measuring the quantity of hydrolyzed Nitrocefin™ at a wavelength of 492 nm by means of a microplate reader. In this screening system, the operation was carried out in the presence of Zn^2+ (100 µM) in order to eliminate the inhibitory effect due to chelating action. […]

[3] = 200 µg/rat into right ventricle of the brain
[4] = 400 µg/rat into right ventricle of the brain
[5] = mouse, 500 mg/kg intravenously once
[6] = mouse, 1,000 mg/kg intravenously once
[7] = mouse, 1,500 mg/kg intravenously once

Work on C[C@@H](O)[C@H]1C(=O)N2C(C(=O)O)=C(S[C@@H]3CN[C@@H](c4csc(CN)c4)C3)[C@H](C)[C@H]12.Cl [Example 32, (1R,5S,6S)-2-[(3S,5R)-5-(2-aminomethyl-4-thienyl)-pyrrolidin-3-ylthio]-6-[(R)-1-hydroxyethyl]-1-methyl-1-carbapen-2-em-3-carboxylic acid hydrochloride] yielded an MIC (MRSA BB6294; MRSA BB6294, medium containing 2% sodium chloride, 35°C, 48 hours) of 3.13 µg/mL, an MIC (P. aeruginosa IFO-3445; IFO3445, P. aeruginosa IFO-3445, MH agar, 10^6 CFU/ml, 37°C for 16 hours) of 0.39 µg/mL and an MIC (E. coli NIHJ JC2; NIHJJC2, E. coli NIHJ JC2, MH agar, 10^6 CFU/ml, 37°C for 16 hours) of 0.025 µg/mL.
C[C@@H](N)c1ccc([C@H]2C[C@H](SC3=C(C(=O)O)N4C(=O)[C@H]([C@@H](C)O)[C@H]4[C@H]3C)CN2)cc1 [Example 15, (1R,5S,6S)-2-[(3S,5R)-5-[4-[(1R)-aminoethyl]phenyl]-pyrrolidin-3-ylthio]-6-[(R)-1-hydroxyethyl]-1-methyl-1-carbapen-2-em-3-carboxylic acid hydrochloride] showed an MIC (MRSA BB6294; MRSA, 48 h) of 3.13 µg/mL, an MIC (P. aeruginosa IFO-3445; IFO3445, 16 h) of 0.2 µg/mL and an MIC (E. coli NIHJ JC2; NIHJJC2, 16 h) of 0.025 µg/mL. The “Number of convulsed cases” value (male SD rats; [3]) was 0/5 and the “Number of dead cases” value (male SD rats; [3]) was 0/5.
In the case of C[C@@H](O)[C@H]1C(=O)N2C(C(=O)O)=C(SCCNC=N)C[C@H]12.O [Imipenem, (5R,6S)-3-[2-(formimidoylamino)-ethylthio]-6-[(R)-1-hydroxyethyl]-7-oxo-1-azabicyclo[3.2.0]hepta-2-ene-2-carboxylic acid monohydrate], the “enhanced antibacterial activity compared to the parent antibiotic, thienamycin” value (Pseudomonas aeruginosa) is listed as 2-4 times.
For CNCc1ccc([C@H]2C[C@H](SC3=C(C(=O)O)N4C(=O)[C@H]([C@@H](C)O)[C@H]4[C@H]3C)CN2)cc1.Cl [Example 1, (1R,5S,6S)-2-[(3S,5R)-5-[4-N-methylaminomethylphenyl]-pyrrolidin-3-ylthio]-6-[(R)-1-hydroxyethyl]-1-methyl-1-carbapen-2-em-3-carboxylic acid hydrochloride], the “Rf value, Control” value ([1]; control: test compound in 10 mmol MOPS buffer (pH 7), 250 µg/ml, spotted on TLC plate, clear zone with B. subtilis ATCC 12432) was 0.40, the “Rf value, Accumulated urine during 0-1 hr after administration” value ([1]; rhesus monkey, 10 mg/kg intravenously, urine 0-1 hr, TLC clear zone with B. subtilis ATCC 12432) was 0.40 and the “Rf value, Accumulated urine during 1-2 hrs after administration” value ([1]; rhesus monkey, 10 mg/kg intravenously, urine 1-2 hrs, TLC clear zone with B. subtilis ATCC 12432) was 0.40. The “Number of convulsed cases” value (male SD rats; [4]) was 0/5 and the “Number of dead cases” value (male SD rats; [4]) was 0/5.
Compound C[C@H](N)c1ccc([C@H]2C[C@H](SC3=C(C(=O)O)N4C(=O)[C@H]([C@@H](C)O)[C@H]4[C@H]3C)CN2)cc1 [Example 14, (1R,5S,6S)-2-[(3S,5R)-5-[4-[(1S)-aminoethyl]phenyl]-pyrrolidin-3-ylthio]-6-[(R)-1-hydroxyethyl]-1-methyl-1-carbapen-2-em-3-carboxylic acid hydrochloride] has an MIC (MRSA BB6294; MRSA, 48 h) of 3.13 µg/mL, an MIC (P. aeruginosa IFO-3445; IFO3445, 16 h) of 0.1 µg/mL and an MIC (E. coli NIHJ JC2; NIHJJC2, 16 h) of 0.025 µg/mL. The “Number of convulsed cases” value (male SD rats; [3]) was 0/5 and the “Number of dead cases” value (male SD rats; [3]) was 0/5.
For C[C@@H](O)[C@H]1C(=O)N2C(C(=O)O)=C(S[C@@H]3CN[C@@H](c4ccc(C(N)CC(N)=O)cc4)C3)[C@H](C)[C@H]12.Cl (stereo partly drawn) [Example 24, (1R,5S,6S)-2-[(3S,5R)-5-[4-(1-amino-2-carbamoylethyl)-phenyl]pyrrolidin-3-ylthio]-6-[(R)-1-hydroxyethyl]-1-methyl-1-carbapen-2-em-3-carboxylic acid hydrochloride], the “Motility and general symptoms” value (male ICR mice; [5]) was “No abnormality”, the “Number of alive animals” value (male ICR mice; [5]) was 2/2 and the “Motility and general symptoms” value (male ICR mice; [6]) was “No abnormality”. For the same compound, the “Number of alive animals” value (male ICR mice; [6]) was 5/5, the “Motility and general symptoms” value (male ICR mice; [7]) was “No abnormality” and the “Number of alive animals” value (male ICR mice; [7]) was 5/5.
For C=CCOC(=O)N(C)Cc1ccc([C@H]2C[C@H](SC(C)=O)CN2C(=O)OCC=C)cc1 [Compound of Referential. Ex. 1, (2R,4S)-4-Acetylthio-1-allyloxycarbonyl-2-(4-N-allyloxycarbonyl-N-methylaminomethyl)phenylpyrrolidine], the IC50 [2] was less than 100 nM.
